Data: patent US20230346770A1 (priority 2020, published 2023)
Converted amounts (≈) assume the structure as drawn. Like-named read-outs stand apart in the source and are kept apart here.

What was measured:
[1] = Phase 1 crossover drug-drug interaction study, plasma pharmacokinetics in healthy adults; details: for time of peak of mean plasma concentration / pre-dose mean plasma concentration: Treatment B; for time of peak of mean plasma concentration: Day 5, in combination with bedaquiline; for pre-dose mean plasma concentration: Day 5 morning
[2] = human, in vivo
[3] = updated model from the present study; clarithromycin coadministration
[4] = tested on: M. bovis; details: n=1; cited from earlier work
[5] = tested on: M. avium/M. intracellulare (MAC); details: n=7; cited from earlier work
[6] = tested on: M. kansasii; details: n=1; cited from earlier work
[7] = tested on: M. marinum; details: n=1; cited from earlier work
[8] = tested on: M. fortuitum; details: n=5; cited from earlier work
[9] = tested on: M. abscessus; details: cited from earlier work
[10] = tested on: M. smegmatis; details: n=7; cited from earlier work
[11] = tested on: M. ulcerans; details: cited from earlier work
[12] = tested on: other mycobacterial species; details: generally, other mycobacterial species incl. M. avium, M. abscessus, M. fortuitum, M. marinum; cited from earlier work
[13] = clinical; details: human, in vivo
[14] = human; cited from earlier work
[15] = in vivo; cited from earlier work
[16] = in vivo; cited from earlier work; remark: listed apart in the source
[17] = 8-week bedaquiline regimen in MDR-TB patients, Diacon et al. 2012; cited from earlier work
[18] = Treatment B Day 5: bedaquiline 100 mg + clarithromycin 500 mg every 12 hours, n=16

With CO[C@]1(C)C[C@@H](C)C(=O)[C@H](C)[C@@H](O)[C@](C)(O)[C@@H](C(C)O)OC(=O)[C@H](C)[C@@H](O[C@H]2C[C@@](C)(OC)[C@@H](O)[C@H](C)O2)[C@H](C)[C@H]1O[C@@H]1O[C@H](C)C[C@H](N(C)C)[C@H]1O (stereo partly drawn) [14-OH-Clarithromycin, 14-OH-clarithromycin] the “AUC12 h (mean)” value [1, 18] was 10849 ng·h/mL, the “Cmax (mean)” value [1, 18] was 1,152 ng/mL and the “Cmin (mean)” value [1, 18] was 636 ng/mL. For the same compound, the “tmax (median)” value [1, 18] was 2.00 h, the “time of peak of mean plasma concentration” value [1] was 3 hours post-dose and the “pre-dose mean plasma concentration” value [1] was 797 ng/mL.

With COc1nc2ccc(Br)cc2cc1[C@@H](c1ccccc1)[C@@](O)(CCN(C)C)c1cccc2ccccc12 [Bedaquiline, (1R,2S)-1-(6-bromo-2-methoxyquinolin-3-yl)-4-(dimethylamino)-2-naphthalen-1-yl-1-phenylbutan-2-ol] the “AUC72h higher in Period 2 compared with Period 1” value [2] was 5-6%, the “AUC240h higher in Period 2 compared with Period 1” value [2] was 8-18% and the “increase of AUC72h with clarithromycin co-administration” value [2] was 12%. The “increase of AUC240h (mean plasma exposure) with clarithromycin co-administration” value [2] was 14%, the “plasma concentration quantifiable until” value [2] was 240 hours post-dose and the “tmax (median)” value [2] was 3.48 h. The “Cmax (mean)” value ([2]; 100 mg) was 1287 ng/mL, the “Effect CLR on CL/F, Estimate (RSE, %)” value [3] was −0.37 (11) and the “Bedaquiline MIC Median” value [4] was 3 ng/mL. The “Bedaquiline MIC Median” value [5] was 10 ng/mL, the “Bedaquiline MIC range” value [5] was 7 to 10 ng/mL and the “Bedaquiline MIC Median” value [6] was 3 ng/mL. For the same compound, the “Bedaquiline MIC Median” value [7] was 3 ng/mL, the “Bedaquiline MIC Median” value [8] was 10 ng/mL and the “Bedaquiline MIC range” value [8] was 7 to 10 ng/mL. For the same compound, the MIC ([9]; 1 isolate of M. abscessus) was 250 ng/mL (≈ 0.45 µM), the “Bedaquiline MIC Median” value ([9]; n=1) was 250 ng/mL and the “Bedaquiline MIC Median” value [10] was 7 ng/mL. The “Bedaquiline MIC range” value [10] was 3 to 100 ng/mL, the MIC ([11]; 1 isolate of M ulcerans) was 500 ng/mL (≈ 0.9 µM) and the “Bedaquiline MIC Median” value ([11]; n=1) was 500 ng/mL. The MICs [12] was under 0.1 µg/mL, the Cmax ([13]; 100 mg, Cmax (mean)) was 1390 ng/mL and the AUC(0-t) ([13]; AUC72 h (mean)) was 13900 ng·h/mL. For the same compound, the AUC(0-t) ([13]; AUC240 h (mean)) was 17600 ng·h/mL, the Tmax ([13]; tmax (median)) was 5 h and the “Increase in CL for healthy volunteers or C202, Estimate” value [14] was 37.5%. For the same compound, the terminal elimination half-life [15] was 5.5 months, the “time within which Cmax was reached after drug administration” value [15] was 4 to 6 h and the “improvement of bioavailability when administered with food” value [16] was “approximately 2 fold”.

For CC[C@H]1OC(=O)[C@H](C)[C@@H](O[C@H]2C[C@@](C)(OC)[C@@H](O)[C@H](C)O2)[C@H](C)[C@@H](O[C@@H]2O[C@H](C)C[C@H](N(C)C)[C@H]2O)[C@](C)(OC)C[C@@H](C)C(=O)[C@H](C)[C@@H](O)[C@]1(C)O [Clarithromycin, clarithromycin, reference compound], the “time of peak of mean plasma concentration” value [1] was 3 hours post-dose, the “pre-dose mean plasma concentration” value [1] was 1,281 ng/mL and the AUC(0-t) ([1]; human, plasma, oral, AUC12 h (mean), Treatment B Day 5: bedaquiline 100 mg + clarithromycin 500 mg every 12 hours, n=16) was 22900 ng·h/mL. The Cmax ([1]; human, plasma, oral, Cmax (mean), Treatment B Day 5: bedaquiline 100 mg + clarithromycin 500 mg every 12 hours, n=16) was 2970 ng/mL and the Tmax ([1]; human, plasma, oral, tmax (median), Treatment B Day 5: bedaquiline 100 mg + clarithromycin 500 mg every 12 hours, n=16) was 3 h.

For CNCC[C@@](O)(c1cccc2ccccc12)[C@H](c1ccccc1)c1cc2cc(Br)ccc2nc1OC [M2], the “mean terminal elimination half-life” value [17] is listed as 159 days.
